Series [1] relates to Mycobacterium tuberculosis. The series can be described thus: Antitubercular activity against Mycobacterium tuberculosis H37RV ATCC27294 assessed as inhibition of bacterial growth by MABA assay. In kind it is functional. A general note: Alamar Blue is a resazurin reagent that responds to reducing activity.
Series [2] concerns Plasmodium falciparum. Briefly: Antimalarial activity against Plasmodium falciparum assessed as inhibition of parasite growth. In kind it is functional, organism-based.
In series [3] the test system is RAW264.7. The series can be described thus: Cytotoxicity against mouse RAW264.7 cells at 25 microg/ml by MTT assay. In kind it is toxicity, cell-based. Conditions: dose 25 µg/ml.
A short description of series [4]: Cytotoxicity against mouse RAW264.7 cells assessed as inhibition of cell growth at 78.29 uM by MTT assay relative to control. In kind it is toxicity, cell-based.
The nature of series [5]: Cytotoxicity against mouse RAW264.7 cells assessed as inhibition of cell growth at 66.37 uM by MTT assay relative to control. In kind it is toxicity, cell-based. A general note: Tetrazolium assays rely on reduction of a dye to a coloured formazan, in cell work by metabolically active cells.
Series [6] can be described thus: Cytotoxicity against mouse RAW264.7 cells assessed as inhibition of cell growth at 81.35 uM by MTT assay relative to control. In kind it is toxicity, cell-based.

Converted amounts (≈) assume the structure as drawn.

Turning to `Cc1ccc(-n2cc(-c3nc4ccccc4c(=O)[nH]3)nn2)cc1`, the minimum inhibitory concentration (MIC) in series [1] was greater than 82.4 µM. Besides, in series [2], the half-inhibitory concentration (IC50) stood at 3.1 µM. Moreover, the Activity result in series [3] is “Non-Toxic”.

With `O=c1[nH]c(-c2cn(-c3ccc(F)cc3)nn2)nc2ccccc12`, the MIC in series [1] was greater than 81.4 µM. The concentration for half-maximal inhibition (IC50) in series [2] came to 1.95 µM. Moreover, the Activity result in series [3] is given as “Non-Toxic”.

`Cc1cc(C)c(-n2cc(-c3nc4ccccc4c(=O)[nH]3)nn2)c(C)c1`: the minimum inhibitory concentration (MIC) in series [1] was greater than 75.4 µM. Besides, in series [2], the concentration for half-maximal inhibition (IC50) was 2.9 µM. Further, the Activity entry in series [3] was “Non-Toxic”.

Take `CCc1ccc(-n2cc(-c3nc4ccccc4c(=O)[nH]3)nn2)cc1`: the MIC in series [1] stood at 78.8 µM (≈ 25 µg/mL). In series [2], the half-maximal inhibitory concentration (IC50) is 3.25 µM. In addition, the Activity result in series [3] was “Non-Toxic”.

In the case of `O=c1[nH]c(-c2cn(-c3ccc(Cl)cc3)nn2)nc2ccccc12`, the minimum inhibitory concentration (MIC) in series [1] was found to be 77.2 µM (≈ 25 µg/mL). Besides, the IC50 in series [2] was found to be 1.92 µM. For the same compound, the Activity result in series [3] was “Non-Toxic”.

With `Cc1ccc(-n2cc(-c3nc4ccccc4c(=O)[nH]3)nn2)c([N+](=O)[O-])c1`, the MIC in series [1] is greater than 71.8 µM. In series [2], the half-inhibitory concentration (IC50) is 2.35 µM. Moreover, the Activity result in series [3] was “Non-Toxic”.

In the case of `O=c1[nH]c(-c2cn(-c3ccccc3)nn2)nc2ccccc12`, the MIC in series [1] is greater than 86.4 µM. Besides, the 50% inhibitory concentration (IC50) in series [2] stood at 2.56 µM. For the same compound, the Activity entry in series [3] is “Non-Toxic”.

Turning to `O=c1[nH]c(-c2cn(-c3ccc([N+](=O)[O-])cc3)nn2)nc2ccccc12`, the MIC in series [1] was 74.8 µM (≈ 25 µg/mL). Moreover, the 50% inhibitory concentration (IC50) in series [2] was found to be 1.97 µM. Further, the Activity result in series [3] is “Non-Toxic”.

`COc1ccc(-n2cc(-c3nc4ccccc4c(=O)[nH]3)nn2)cc1`: the MIC in series [1] was 19.6 µM (≈ 6.25 µg/mL). Moreover, the IC50 in series [2] worked out at 2.63 µM. The inhibition at 78.29 µM in series [4] turned out to be 24.3%.

For the compound `O=c1[nH]c(-c2cn(-c3ccc(Br)cc3)nn2)nc2ccccc12`, the minimal inhibitory concentration (MIC) in series [1] is 33.2 µM (≈ 12.2 µg/mL). Moreover, the inhibition at 66.37 µM in series [5] came out at 29.8%. The concentration for half-maximal inhibition (IC50) in series [2] came to 1.96 µM.

In the case of `O=c1[nH]c(-c2cn(-c3ccccc3F)nn2)nc2ccccc12`, in series [1], the minimal inhibitory concentration (MIC) is 40.7 µM (≈ 12.5 µg/mL). In series [2], the IC50 was 2.21 µM. Moreover, the inhibition at 81.35 µM in series [6] came to 27.2%.

`O=c1[nH]c(-c2cn(-c3cccc(Cl)c3)nn2)nc2ccccc12`: the MIC in series [1] was greater than 77.2 µM. The IC50 in series [2] came to 2.78 µM. Also, the Activity entry in series [3] is reported as “Non-Toxic”.

Consider `CC[C@@H](CO)NCCN[C@@H](CC)CO` [ETHAMBUTOL], for which the MIC in series [1] was determined as 7.64 µM (≈ 1.56 µg/mL).

For the compound `C=C[C@H]1CN2CC[C@H]1C[C@H]2[C@H](O)c1ccnc2ccc(OC)cc12` [QUININE], the IC50 in series [2] was 0.826 µM.

Consider `CO[C@H]1/C=C/O[C@@]2(C)Oc3c(C)c(O)c4c(O)c(c(/C=N/N5CCN(C)CC5)c(O)c4c3C2=O)NC(=O)/C(C)=C\C=C\[C@H](C)[C@H](O)[C@@H](C)[C@@H](O)[C@@H](C)[C@H](OC(C)=O)[C@@H]1C` [RIFAMPIN], for which the minimum inhibitory concentration (MIC) in series [1] is 0.13 µM (≈ 0.107 µg/mL).

One may read the MIC as the least concentration at which growth counts as inhibited. In general, IC50 refers to the concentration at which inhibition is half-maximal. By inhibition is commonly meant the relative decrease from the control value, in per cent.

For the origin of these results see ChEMBL document CHEMBL5576059, “Design, synthesis and molecular docking study of novel triazole-quinazolinone hybrids as antimalarial and antitubercular agents” (Bioorg Med Chem Lett, 2024).
